Among the data in patent publication US20230203098A1, “HUMAN TRANSFERRIN RECEPTOR BINDING PEPTIDE” (priority 2020, published 2023) are Kd values, retold here.

Where a SMILES comes first, the peptide text is derived from it. Bridges are numbered along the chain shown (N, C = ends). [ ]: non-standard residue; d: D form. PEG12 = NCCOCCOCCOCCOCCOCCOCCOCCOCCOCCOCCOCCOCCC(=O)O; NMeY = CN[C@@H](Cc1ccc(O)cc1)C(=O)O; NMeF = CN[C@@H](Cc1ccccc1)C(=O)O; Chg = N[C@H](C(=O)O)C1CCCCC1 Some results are limits rather than exact numbers.

What is called Kd is the constant that tells how readily two partners part at equilibrium.

transferrin receptor (hTfR), sequence (P02786 whole entry): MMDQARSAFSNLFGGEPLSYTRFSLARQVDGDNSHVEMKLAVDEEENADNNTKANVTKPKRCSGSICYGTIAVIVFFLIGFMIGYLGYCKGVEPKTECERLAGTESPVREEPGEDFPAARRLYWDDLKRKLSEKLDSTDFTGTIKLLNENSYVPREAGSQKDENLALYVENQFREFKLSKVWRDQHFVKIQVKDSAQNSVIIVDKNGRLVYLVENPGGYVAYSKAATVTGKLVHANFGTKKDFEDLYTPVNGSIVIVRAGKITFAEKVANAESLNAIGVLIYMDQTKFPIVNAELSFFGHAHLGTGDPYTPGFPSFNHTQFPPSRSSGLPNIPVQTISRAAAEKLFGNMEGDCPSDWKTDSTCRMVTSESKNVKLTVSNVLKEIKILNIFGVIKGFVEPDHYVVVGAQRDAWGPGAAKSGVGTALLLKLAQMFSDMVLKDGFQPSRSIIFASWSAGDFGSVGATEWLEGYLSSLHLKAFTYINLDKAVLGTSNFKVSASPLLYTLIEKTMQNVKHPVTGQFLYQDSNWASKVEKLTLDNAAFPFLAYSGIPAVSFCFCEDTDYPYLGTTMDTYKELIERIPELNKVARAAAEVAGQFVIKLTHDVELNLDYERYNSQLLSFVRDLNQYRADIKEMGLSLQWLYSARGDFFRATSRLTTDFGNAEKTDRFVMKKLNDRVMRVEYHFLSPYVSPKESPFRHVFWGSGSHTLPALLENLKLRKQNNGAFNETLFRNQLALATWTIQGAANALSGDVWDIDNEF

This assay deals with transferrin receptor (hTfR) (Homo sapiens, UniProt P02786). Description: Intermolecular interaction evaluation test between transferrin receptor (hTfR) and peptide by surface plasmon resonance (SPR). Particulars: binding to hTfR by SPR; Table 2 peptides; read-out: KD value (SPR) class. It counts as binding. An outline of the steps:
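hTfR captured on Ni-NTA chip then amine-coupled; peptides run single-cycle kinetics at 5–100 nM in 10 mM HEPES pH 8.0, 150 mM NaCl, 0.05% Tween 20, 0.1% BSA, 1.0% DMSO. KD from least-squares curve fitting of sensorgrams.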
As to `CC[C@H](C)[C@@H]1NC(=O)[C@H](Cc2ccc(O)cc2)NC(=O)[C@H](Cc2ccc(O)cc2)NC(=O)[C@H](CC(N)=O)NC(=O)[C@H](Cc2c[nH]c3ccccc23)NC(=O)[C@H](C(C)C)NC(=O)[C@H](Cc2ccccc2)NC(=O)[C@H](C(C)C)NC(=O)[C@H](C)NC(=O)CSC[C@@H](C(N)=O)NC(=O)[C@H](Cc2ccc(O)cc2)N(C)C(=O)[C@H](CCCNC(=N)N)NC(=O)[C@H](CCCNC(=N)N)NC(=O)[C@H](CCCNC(=N)N)NC(=O)[C@H]([C@@H](C)CC)NC1=O` [compound 260], the Kd lay in the range of 0.001 to 0.1 µM.

Consider `CC[C@H](C)[C@@H]1NC(=O)[C@H](Cc2ccc(O)cc2)NC(=O)[C@H](Cc2ccc(O)cc2)NC(=O)[C@H](CC(N)=O)NC(=O)[C@H](Cc2c[nH]c3ccccc23)NC(=O)[C@H](C(C)C)NC(=O)[C@H](Cc2ccccc2)NC(=O)[C@H](C(C)C)NC(=O)[C@H](C)NC(=O)CSC[C@@H](C(N)=O)NC(=O)[C@H](Cc2ccc(O)cc2)N(C)C(=O)[C@H](CCCCN)NC(=O)[C@H](CCCNC(=N)N)NC(=O)[C@H](CCCNC(=N)N)NC(=O)[C@H]([C@@H](C)CC)NC1=O` [compound 261], for which the Kd was 0.001 to 0.1 µM.

Take `CC[C@H](C)[C@@H]1NC(=O)[C@H](Cc2ccc(O)cc2)NC(=O)[C@H](Cc2ccc(O)cc2)NC(=O)[C@H](CC(N)=O)NC(=O)[C@H](Cc2c[nH]c3ccccc23)NC(=O)[C@H](C(C)C)NC(=O)[C@H](Cc2ccccc2)NC(=O)[C@H](C(C)C)NC(=O)[C@H](C)NC(=O)CSC[C@@H](C(=O)NCC(=O)NCC(=O)N[C@@H](CO)C(=O)NCC(=O)N[C@@H](CO)C(=O)NCC(=O)N[C@@H](CCCCNC(=O)C2CCC(CN3C(=O)C=CC3=O)CC2)C(N)=O)NC(=O)[C@H](Cc2ccc(O)cc2)NC(=O)[C@H](Cc2ccccc2)NC(=O)[C@H](CCCNC(=N)N)NC(=O)[C@H](CCCNC(=N)N)NC(=O)[C@H]([C@@H](C)CC)NC1=O` (stereo partly drawn) [compound 262]: the Kd lay within 0.1 to 1 µM.

Regarding `CC[C@H](C)[C@@H]1NC(=O)[C@H](Cc2ccc(O)cc2)NC(=O)[C@H](Cc2ccc(O)cc2)NC(=O)[C@H](CC(N)=O)NC(=O)[C@H](Cc2c[nH]c3ccccc23)N(C)C(=O)[C@H](C(C)C)NC(=O)[C@H](Cc2ccccc2)NC(=O)[C@H](C(C)C)NC(=O)[C@H](C)NC(=O)CSC[C@@H](C(N)=O)NC(=O)[C@H](Cc2ccc(O)cc2)N(C)C(=O)[C@H](Cc2ccc(O)cc2)NC(=O)[C@H](CCCNC(=N)N)NC(=O)[C@H](CCCNC(=N)N)NC(=O)[C@H]([C@@H](C)CC)NC1=O` [compound 263], the Kd is below 0.001 µM.

For the compound `CC[C@H](C)[C@@H]1NC(=O)[C@H](Cc2ccc(O)cc2)NC(=O)[C@H](Cc2ccc(O)cc2)NC(=O)[C@H](CC(N)=O)NC(=O)[C@H](Cc2c[nH]c3ccccc23)N(C)C(=O)[C@H](C(C)C)NC(=O)[C@H](Cc2ccccc2)NC(=O)[C@H](C(C)C)NC(=O)[C@H](C)NC(=O)CSC[C@@H](C(=O)NCCOCCOCCOCCOCCC(N)=O)NC(=O)[C@H](Cc2ccc(O)cc2)N(C)C(=O)[C@H](Cc2ccc(O)cc2)NC(=O)[C@H](CCCNC(=N)N)NC(=O)[C@H](CCCNC(=N)N)NC(=O)[C@H]([C@@H](C)CC)NC1=O` [compound 264], the Kd was below 0.001 µM.

Turning to `CC[C@H](C)[C@@H]1NC(=O)[C@H](C2CCCCC2)NC(=O)[C@H](Cc2ccc(O)cc2)NC(=O)[C@H](Cc2ccc(O)cc2)NC(=O)[C@H](CC(N)=O)NC(=O)[C@H](Cc2c[nH]c3ccccc23)NC(=O)[C@H](C2CCCCC2)NC(=O)[C@H](Cc2ccccc2)N(C)C(=O)[C@H](C(C)C)NC(=O)[C@H](C)NC(=O)CSC[C@@H](C(=O)NCCOCCOCCOCCOCCOCCOCCOCCOCCOCCOCCOCCOCCC(N)=O)NC(=O)[C@H](Cc2ccc(O)cc2)N(C)C(=O)[C@H](Cc2ccc(O)cc2)NC(=O)[C@H](CCCNC(=N)N)NC(=O)[C@H](CCCNC(=N)N)NC1=O` [compound 266] ({CH2CO}-AV[NMeF][Chg]WNYY[Chg]IRRY[NMeY]C[PEG12]-NH2; thioether N-15), the Kd lay in the range of 0.1 to 1 µM.

Take `CC[C@H](C)[C@@H]1NC(=O)[C@H](C2CCCCC2)NC(=O)[C@H](Cc2ccc(O)cc2)NC(=O)[C@H](Cc2ccc(O)cc2)NC(=O)[C@H](CC(N)=O)NC(=O)[C@H](Cc2c[nH]c3ccccc23)NC(=O)[C@H](C2CCCCC2)NC(=O)[C@H](Cc2ccccc2)N(C)C(=O)[C@H](C(C)C)NC(=O)[C@H](C)NC(=O)CSC[C@@H](C(N)=O)NC(=O)[C@H](Cc2ccc(O)cc2)N(C)C(=O)[C@H](Cc2ccc(O)cc2)NC(=O)[C@H](CCCNC(=N)N)NC(=O)[C@H](CCCNC(=N)N)NC1=O` [compound 267] ({CH2CO}-AV[NMeF][Chg]WNYY[Chg]IRRY[NMeY]C-NH2; thioether N-15): the Kd was in the range of 0.1 to 1 µM.

As to `CC[C@H](C)[C@@H]1NC(=O)[C@H](Cc2ccc(O)cc2)NC(=O)[C@H](Cc2ccc(O)cc2)NC(=O)[C@H](CC(N)=O)NC(=O)[C@H](Cc2c[nH]c3ccc(Cl)cc23)NC(=O)[C@H](C(C)C)NC(=O)[C@H](Cc2ccccc2)N(C)C(=O)[C@H](C(C)C)NC(=O)[C@H](C)NC(=O)CSC[C@@H](C(N)=O)NC(=O)[C@H](Cc2ccc(O)cc2)N(C)C(=O)[C@H](Cc2ccc(O)cc2)NC(=O)[C@H](CCCNC(=N)N)NC(=O)[C@H](CCCNC(=N)N)NC(=O)[C@H]([C@@H](C)CC)NC1=O` [compound 268], the Kd lay in the range of 0.001 to 0.1 µM.

Turning to `CC[C@H](C)[C@@H]1NC(=O)[C@H](Cc2ccc(O)cc2)NC(=O)[C@H](Cc2ccc(O)cc2)NC(=O)[C@H](CC(N)=O)NC(=O)[C@H](Cc2c[nH]c3ccc(F)cc23)NC(=O)[C@H](C(C)C)NC(=O)[C@H](Cc2ccccc2)N(C)C(=O)[C@H](C(C)C)NC(=O)[C@H](C)NC(=O)CSC[C@@H](C(N)=O)NC(=O)[C@H](Cc2ccc(O)cc2)N(C)C(=O)[C@H](Cc2ccc(O)cc2)NC(=O)[C@H](CCCNC(=N)N)NC(=O)[C@H](CCCNC(=N)N)NC(=O)[C@H]([C@@H](C)CC)NC1=O` [compound 269], the Kd lay within 0.001 to 0.1 µM.

For the compound `CC[C@H](C)[C@@H]1NC(=O)[C@H](Cc2ccc(O)cc2)NC(=O)[C@H](Cc2ccc(O)cc2)NC(=O)[C@H](CC(N)=O)NC(=O)[C@H](Cc2c[nH]c3cc(F)ccc23)NC(=O)[C@H](C(C)C)NC(=O)[C@H](Cc2ccccc2)N(C)C(=O)[C@H](C(C)C)NC(=O)[C@H](C)NC(=O)CSC[C@@H](C(N)=O)NC(=O)[C@H](Cc2ccc(O)cc2)N(C)C(=O)[C@H](Cc2ccc(O)cc2)NC(=O)[C@H](CCCNC(=N)N)NC(=O)[C@H](CCCNC(=N)N)NC(=O)[C@H]([C@@H](C)CC)NC1=O` [compound 270], the Kd lay in the range of 0.001 to 0.1 µM.

Turning to `CC[C@H](C)[C@@H]1NC(=O)[C@H](Cc2ccc(O)cc2)NC(=O)[C@H](Cc2ccc(O)cc2)NC(=O)[C@H](CC(N)=O)NC(=O)[C@H](Cc2cn(CCO)c3ccccc23)NC(=O)[C@H](C(C)C)NC(=O)[C@H](Cc2ccccc2)N(C)C(=O)[C@H](C(C)C)NC(=O)[C@H](C)NC(=O)CSC[C@@H](C(N)=O)NC(=O)[C@H](Cc2ccc(O)cc2)N(C)C(=O)[C@H](Cc2ccc(O)cc2)NC(=O)[C@H](CCCNC(=N)N)NC(=O)[C@H](CCCNC(=N)N)NC(=O)[C@H]([C@@H](C)CC)NC1=O` [compound 271], the Kd fell in the range of 0.001 to 0.1 µM.

Turning to `CC[C@H](C)[C@@H]1NC(=O)[C@H](Cc2ccc(O)cc2)NC(=O)[C@H](Cc2ccc(O)cc2)NC(=O)[C@H](Cc2c[nH]cn2)NC(=O)[C@H](Cc2c[nH]c3ccccc23)NC(=O)[C@H](C(C)C)NC(=O)[C@H](Cc2ccccc2)N(C)C(=O)[C@H](C(C)C)NC(=O)[C@H](C)NC(=O)CSC[C@@H](C(N)=O)NC(=O)[C@H](Cc2ccc(O)cc2)N(C)C(=O)[C@H](Cc2ccc(O)cc2)NC(=O)[C@H](CCCNC(=N)N)NC(=O)[C@H](CCCNC(=N)N)NC(=O)[C@H]([C@@H](C)CC)NC1=O` [compound 274], the Kd is 0.1 to 1 µM.
